Values after ≈ are worked out from the molar mass of the structure shown. Values joined by “and” are separate entries in the source; they are usually repeats but may differ in a detail not shown here. Identical values can stand only once. Like-named read-outs stand apart in the source and are kept apart here.
How the values were obtained:
[1] = test system: Aedes aegypti LVP (SP-susceptible) strain L3 larvae; assay: Larval mortality-time assay, LVP strain; assay type: in vivo; details: table row says LC50 LVP dose, text LC90 dose
From the text: Results represent n=3 biological replicates. Lethal time (LT50) of post topical exposure to a Lethal Concentration (LC90) dose is shown in comparison to SP and the technical grade synthetic pyrethroid, Deltamethrin.

[2] = test system: Aedes aegypti LVP (SP-susceptible) strain L3 larvae; details: data from a previous study, cited from earlier work
[3] = test system: Musca domestica CAR21 (insecticide susceptible) strain; assay: Topical synergist 24-hour mortality assay, CAR21 house flies; assay type: in vivo; details: for % Dead / Alive / Dead: CAR21, topical doses; for % Dead: 24-hour mortality; for maximum sublethal dose: for both strains (CAR21, KS17); for Alive / Dead: number of flies, pooled of 4 replicates, 24-hour
[4] = test system: Aedes aegypti PRS (SP-resistant) strain L3 larvae; details: data from a previous study, cited from earlier work
[5] = test system: Musca domestica KS17 (insecticide resistant) strain; assay: Topical synergist 24-hour mortality assay, KS17 house flies; assay type: in vivo; details: topical doses; for % Dead: 24-hour mortality; for Alive / Dead: number of flies, pooled of 4 replicates, 24-hour
[6] = test system: Aedes aegypti PRS (SP-resistant) strain L3 larvae; assay: Larval dose-mortality (dose response) assay, PRS strain; assay type: in vivo; details: for LC50: Aedes aegypti, PRS L3 larvae, read-out: Lethal Concentration (LC50)
From the text: (§1) Results represent n=3 biological replicates.

[7] = test system: Aedes aegypti LVP (SP-susceptible) strain L3 larvae; assay: Larval dose-mortality (dose response) assay, LVP strain; assay type: in vivo; details: for LC50: Aedes aegypti, read-out: Lethal Concentration (LC50)
From the text: as §1

[8] = test system: Aedes aegypti LVP (SP-susceptible) strain L3 larvae; assay: Qcide combinations larval dose-mortality assay, LVP strain; assay type: in vivo
Method: (§2) Results represent n=3 biological replicates. […] The Synergistic Ratio (SR) and P-value are shown. Mosquito mortality is shown for A and B: LVP at 24 and 48 hours. […] Mosquito mortality is shown for A and B: PRS at 24 and 48 hours.
(§3) Results represent n=3 biological replicates. […] The Synergistic Ratio (SR) and P-value are shown.

[9] = test system: Aedes aegypti PRS (SP-resistant) strain L3 larvae; assay: Qcide combinations larval dose-mortality assay, PRS strain; assay type: in vivo
Method: as §2, §3

[10] = test system: Aedes aegypti LVP (SP-susceptible) strain 3-5 day old adults; assay: Adult dose-mortality assay, LVP strain; assay type: in vivo; details: for LC50: Aedes aegypti, read-out: Lethal Dose (LC50)
[11] = test system: Aedes aegypti PRS (SP-resistant) strain 3-5 day old adults; assay: Adult dose-mortality assay, PRS strain; assay type: in vivo; details: for LC50: Aedes aegypti, PRS adults
[12] = 24 h, Permethrin alone (Table 4)
[13] = 24 h, Permethrin alone (Table 5)
[14] = 48 h, Permethrin alone (Table 4)
[15] = 48 h, Permethrin alone (Table 5)

CC1(C)[C@H](C(=O)O[C@H](C#N)c2cccc(Oc3ccccc3)c2)[C@@H]1C=C(Br)Br [Deltamethrin]
Lethal Time (LT50) [1]: 5.6 h and 5.5 h

CC(C)C(=O)C1C(=O)C(C)(C)C(=O)C(C)(C)C1=O [Flavesone, flavesone]
Lethal Concentration (LC50) ([2]; 24 hours, listed as flavesone): 41 µg/mL | Lethal Concentration (LC50) ([2]; 24 hours): 40.9 µg/mL | Lethal Concentration (LC50) ([2]; 48 hours): 40.5 µg/mL | Lethal Concentration (LC50) ([2]; 72 hours): 39.7 µg/mL | % Dead [3]: 0.0% | maximum sublethal dose ([3]; topical): 0.3 % v/v | Alive [3]: 80 | Dead [3]: 0 | Lethal Concentration (LC50) ([4]; 24 hours, listed as flavesone): 39 µg/mL | Lethal Concentration (LC50) ([4]; 24 hours): 38.7 µg/mL | Lethal Concentration (LC50) ([4]; 48 hours): 37.1 µg/mL | Lethal Concentration (LC50) ([4]; 72 hours): 37.1 µg/mL

CCCCOCCOCCOCc1cc2c(cc1CCC)OCO2 [PBO, piperonyl butoxide]
% Dead [3]: 0.0% | maximum sublethal dose ([3]; topical): 10 μg/fly | Alive [3]: 80 | Dead [3]: 0 | % Dead [5]: 3.9% | Alive [5]: 74 | Dead [5]: 3

CC1(C)C(C=C(Cl)Cl)C1C(=O)OCc1cccc(Oc2ccccc2)c1 (stereo not drawn) [Permethrin, permethrin]
% Dead [3]: 7.5% | LD50 dose ([3]; CAR21 strain, topical): 12 ng/fly | Alive [3]: 74 | Dead [3]: 6 | % Dead [5]: 3.8% | Alive [5]: 77 | Dead [5]: 3 | LC50 ([6]; 24 hours post exposure): 0.7 µg/mL (≈ 1.79 µM) | LC50 ([6]; 48 hours post exposure): 0.6 µg/mL (≈ 1.53 µM) | LC50 ([6]; 72 hours post exposure): 0.6 µg/mL (≈ 1.53 µM) | resistance of PRS strain larvae as compared to LVP strain ([6]; L3 larvae, under assay conditions): approx. 25 fold | Lethal Concentration (LC50) ([7]; 24 hours post exposure): 0.0259 µg/mL | LC50 ([7]; 24 h, 24 hours post exposure): 0.026 µg/mL (≈ 0.0664 µM) | LC50 ([7]; 48 h, 48 hours post exposure): 0.0252 µg/mL (≈ 0.0644 µM) | LC50 ([7]; 72 h, 72 hours post exposure): 0.0214 µg/mL (≈ 0.0547 µM) | LC50 [8, 12]: 0.0205 µg/mL | LC50 [8, 13]: 0.0237 µg/mL | LC50 [8, 14]: 0.0181 µg/mL | LC50 [8, 15]: 0.0217 µg/mL | Lethal Time (LT50) [1]: 5.5 h and 5.6 h | LC50 [9, 12]: 2.1 µg/mL | LC50 [9, 13]: 1.21 µg/mL | LC50 [9, 14]: 1.3 µg/mL | LC50 [9, 15]: 0.87 µg/mL | Lethal Dose (LC50) ([10]; 24 hours post exposure): 0.5429 µg/mL | LC50 ([10]; 24 h, 24 hours post exposure): 0.543 µg/mL (≈ 1.39 µM) | LC50 ([10]; 48 h, 48 hours post exposure): 0.505 µg/mL (≈ 1.29 µM) | LC50 ([11]; 24 hours post exposure, read-out: Lethal Dose (LC50)): 130 µg/mL (≈ 332 µM) | LC50 ([11]; 24 hours, read-out: LC50): 130 µg/mL (≈ 332 µM) | LC50 ([11]; 48 hours post exposure, read-out: Lethal Dose (LC50)): 120 µg/mL (≈ 307 µM) | resistance of PRS strain adults as compared to LVP ([11]; adults, under assay conditions): approximately 240 fold
